In US5814646A, “Inhibitors of amyloid beta-protein production” (Eli Lilly and Company, priority 1995, dated 1998):

Test system: Aβ production in 293 751 SWE and CHO 751 SWE cells (transfected with APP-751 Swedish mutation)
Test: Aβ production inhibition activity in cells (Aβ ELISA of conditioned media, normalized for cytotoxicity by MTT)
Type: cell-based
Settings: 5 μg/ml
Procedure: Two cell lines (human kidney cell line 293 and Chinese hamster ovary cell line CHO) were stably transfected with the gene for APP-751 containing the double mutation Lys651 -Met652 to Asn651 -Leu652 (APP-751 numbering) commonly called the Swedish mutation using the method described in Citron et al., (1992) Nature 360:672-674. The transfected cell lines were designated as 293 751 SWE and CHO 751 SWE, and were plated in Corning 96 well plates at 2.5×10^4 or 1×10^4 cells per well respectively in Dulbecco's minimal essential media plus 10% fetal bovine serum. Following overnight incubation at 37° C. in an incubator equilibrated with 10% carbon dioxide (CO2), the media were removed and replaced with 200 μL per well of media containing a test compound. After a two hour pretreatment period, the media were again removed and replaced with fresh media containing the test compound and the cells were incubated for an additional two hours.
Test compound stocks were prepared in DMSO such that at the final concentration used in the treatment, the concentration of DMSO did no exceed 0.5%. After treatment, plates were centrifuged in a Beckman GPR at 1200 rpm for five minutes at room temperature to pellet cellular debris from the conditioned media. From each well, 100 μL of conditioned media were transferred into an ELISA plate precoated with antibody 266 against βAP-13-28 (Seubert et al., supra.) and stored at 4° C. overnight. An ELISA assay employing labeled antibody 6C6 (against βAP-1-16) was run the next day to measure the amount of Aβ produced.
Cytotoxic effects of the test compounds were measured by a modification of the method of Hansen et al., (1989) J. Immun. Meth. 119:203-210. To the cells remaining in the tissue culture plate, was added 25 μL of a 3, (4,5-dimethylthiazol-2-yl)2,5-diphenyltetrazolium bromide (MTT) stock solution (5 mg/mL) to a final concentration of […]. Cells were incubated at 37° C. for one hour, and cellular activity was stopped by the addition of an equal volume of MTT lysis buffer (20% w/v sodium dodecylsulfate in 50% DMF, pH 4.7). Complete extraction was achieved by overnight shaking at room temperature. The difference in the OD562 nm and the OD650 nm was measured in a Molecular Devices UVmax microplate reader as an indicator of the cellular viability.
The results of the Aβ ELISA were fit to a standard curve and expressed as ng/mL Aβ peptide. In order to normalize for cytotoxicity, these Aβ results were divided by the MTT results and expressed as a percentage of the results from a drug -free control.
The test compounds were assayed for Aβ production inhibition activity in cells at […] using the test. The results presented in Table 1 are the mean and standard deviation of at least six replicate assays. IC50 means the concentration of test compound in micromoles/liter required to inhibit Aβ production by 50%.

SMILES | inhibition at 5 µg/mL [%]
ON(Cc1ccc(OCc2ccc(Cl)c(Cl)c2)cc1)C(=S)NCc1ccccc1 [Compound 54] | 25
CC(C)(C)c1ccc(COc2cccc(CN(O)C(=S)NCc3ccc(Cl)c(Cl)c3)c2)cc1 [Compound 51] | 38
CCCCCCNC(=S)N(O)Cc1ccc(OCc2ccc(F)c(F)c2)cc1 [Compound 57] | 4
ON(Cc1ccc(-c2ccccc2)cc1)C(=S)NCc1ccccc1 [Compound 77] | 2

Same assay, conditions: 10 μg/ml, % of drug-free control, normalized to MTT

SMILES | inhibition at 10 µg/mL [%] | Aβ Production Inhibition Activity, % inhibition at 10 μg/ml [%]
CC(C)(C)c1ccc(Oc2ccc(NC(=S)Nc3ccc(Cl)cc3)cc2)cc1 [Compound 191] | 33 | –
CSc1ccc(NC(=O)Nc2ccc(Cl)cc2)cc1 [Compound 156] | 13 | –
CC(C)(C)c1ccccc1Oc1ccc(NC(=S)Nc2ccc(Cl)c(C(F)(F)F)c2)cc1 [Compound 174] | 66 | –
Cc1cccc(CNC(=S)N(O)Cc2ccc(-c3ccccc3)cc2)c1 [Compound 79] | 15 | –
CSc1ccc(NC(=O)Nc2cccc(Cl)c2Cl)cc1 [Compound 158] | 51 | –
Cc1nnc(NC(=O)Nc2cccc(Cl)c2)s1 [Compound 248] | 47 | –
CSc1ccc(NC(=O)Nc2ccccc2Cl)cc1 [Compound 157] | 41 | –
Cc1ccc(CNC(=S)Nc2ccccc2Oc2ccc(C(C)(C)C)cc2)cc1C [Compound 184] | 36 | –
O=C(Nc1ccc(Cl)c(Cl)c1)c1ncco1 [Compound 241] | – | -8
CC(C)(C)OC(=O)N1CCCCC1CNC(=S)Nc1ccc(Oc2ccc(C(C)(C)C)cc2)cc1 (stereo not drawn) [Compound 124] | 31 | –
CCC(c1cccc(Oc2ccc(C(C)(C)C)cc2)c1)N(O)C(=S)Nc1cccc(C(F)(F)F)c1Cl (stereo not drawn) [Compound 22] | 10 | –
CC(c1cccc(Oc2ccc(C(C)(C)C)cc2)c1)N(O)C(=S)NC(c1ccccc1)c1ccccc1 (stereo not drawn) [Compound 14] | 44 | –
O=C(Nc1ccc(Cl)c(Cl)c1)N1CCCCC1 [Compound 229] | – | 8
CC(C)(C)c1ccc(Oc2ccc(NC(=S)NCc3cccnc3)cc2)cc1 [Compound 121] | 37 | –
CCCc1c(COc2ccc(CN(O)C(=S)Nc3ccc(Cl)c(C(F)(F)F)c3)cc2)ccc(C(=O)c2ccccc2)c1O [Compound 69] | 14 | –
CC(C)(C)c1ccc(Oc2ccccc2NC(=S)NCc2ccccc2)cc1 [Compound 181] | 52 | –
CCCCCCC(c1cccc(Oc2ccc(C(C)(C)C)cc2)c1)N(O)C(=S)NCc1ccccc1 (stereo not drawn) [Compound 36] | 26 | –
CCCc1c(NC(=S)Nc2ccc(C(C)(C)C)cc2)ccc(C(=O)c2ccccc2)c1O [Compound 203] | 2 | –

Same assay, conditions: 2 h pretreatment + 2 h incubation

SMILES | IC50 [µM]
CC(C)(C)c1ccc(Oc2ccc(NC(=S)NCc3ccc(Br)cc3)cc2)cc1 [Compound 108] | 8.9
CCCCCCNC(=S)N(O)C(CC)c1cccc(Oc2ccc(C(C)(C)C)cc2)c1 (stereo not drawn) [Compound 24] | 8.8
Cc1nnc(NC(=O)Nc2ccc(Cl)c(Cl)c2)s1 [Compound 234, 1-(5-methyl-1,3,4-thiadiazol-2-yl)-3-(3,4-dichlorophenyl)urea] | 5
S=C(Nc1ccc(Cl)cc1)Nc1ccc(Cl)c(Cl)c1 [Compound 139] | 6.6
CC(C)(C)c1ccc(Oc2ccc(NC(=S)NCCc3ccccn3)cc2)cc1 [Compound 123] | 12.3
CCCCCCNC(=S)N(O)Cc1cccc(S(=O)(=O)c2ccc(C(C)(C)C)cc2)c1 [Compound 90] | 22
CC(c1cccc(Oc2ccc(C(C)(C)C)cc2)c1)N(O)C(=S)Nc1cccc2ccccc12 (stereo not drawn) [Compound 12] | > 20
CC(C)(C)OC(=O)N1CCCC(CNC(=S)Nc2ccc(Oc3ccc(C(C)(C)C)cc3)cc2)C1 (stereo not drawn) [Compound 125] | 9.3
FC(F)(F)c1cc(NC(=S)Nc2ccc(Cl)c(C(F)(F)F)c2)ccc1Cl [Compound 166] | 2.8
COc1ccc(CNC(=S)Nc2ccc(Oc3ccc(C(C)(C)C)cc3)cc2)cc1 [Compound 111] | 8.3
CC(C)(C)c1cccc(Oc2cccc(CN(O)C(=S)NCc3ccccc3)c2)c1 [Compound 187] | 12.1
Cc1cc2nc(NC(=O)Nc3ccc(Cl)c(Cl)c3)[nH]c2cc1C [Compound 143] | 14.9
CC(C)(C)c1noc(C(=O)Nc2ccc(Cl)c(Cl)c2)n1 [Compound 246] | 5.8
O=C(Nc1ccc(Cl)c(Cl)c1)Nc1nnc(Br)s1 [Compound 240, 1-(5-bromo-1,3,4-thiadiazol-2-yl)-3-(3,4-dichlorophenyl)urea] | 1.8
CC(c1cccc(Oc2ccc(C(C)(C)C)cc2)c1)N(O)C(=S)NCc1ccc(Cl)cc1 (stereo not drawn) [Compound 3] | 11.7
CC(C)(C)c1ccc(-c2ccc(CN(O)C(=S)Nc3ccc(Cl)c(C(F)(F)F)c3)cc2)cc1 [Compound 83] | 12.4
CC(C)(C)c1ccc(Oc2ccc(NC(=S)NCc3ccc(Cl)c(Cl)c3)cc2)cc1 [Compound 133] | 6.5
CC(C)(C)c1ccc(Sc2ccc(CN(O)C(=S)NCc3ccccc3)cc2)cc1 [Compound 88] | 7.5
O=C(Nc1ccc(Cl)c(Cl)c1)Nc1ccccc1Cl [Compound 151] | 10.1
CCCC(c1cccc(Oc2ccc(C(C)(C)C)cc2)c1)N(O)C(=S)NCc1ccccc1 (stereo not drawn) [Compound 29] | 7.5
CC(NC(=S)NCc1ccccc1)c1cccc(Oc2ccc(C(C)(C)C)cc2)c1 (stereo not drawn) [Compound 39] | 10.5
CC(C)(C)c1ccc(Oc2cccc(CN(O)C(=S)NCc3ccc(Cl)c(Cl)c3)c2)cc1 [Compound 28] | 4.2

SMILES | IC50 [µM]
CCCCCCNC(=S)N(O)Cc1ccc(COc2ccc(C(C)(C)CC)cc2)cc1 [Compound 96] | 24.8
O=C(Nc1ccc(Cl)c(Cl)c1)c1nc(C(F)(F)F)no1 [Compound 247] | 4.4
CC(c1cccc(OCc2ccc(C(C)(C)C)cc2)c1)N(O)C(=S)NCc1ccccc1 (stereo not drawn) [Compound 75] | 8.9
Cc1cccc(CNC(=S)N(O)C(C)c2cccc(Oc3ccc(C(C)(C)C)cc3)c2)c1 (stereo not drawn) [Compound 6] | 11.1
CC(C)(C)c1ccccc1Oc1ccc(NC(=S)Nc2cccc(C(F)(F)F)c2)cc1 [Compound 177] | 7.6
CCCCCCNC(=S)N(O)Cc1ccc(Sc2ccc(C(C)(C)C)cc2)cc1 [Compound 89] | 5.3
CCCCCCNC(=S)N(O)Cc1ccc(OCc2ccc(C(C)=O)c(O)c2CCC)cc1 [Compound 68] | 19.7
CCCC(c1cccc(Oc2ccc(C(C)(C)C)cc2)c1)N(O)C(=S)NCc1cccc(Cl)c1 (stereo not drawn) [Compound 30] | 9.1
CSc1ccc(NC(=O)Nc2cc(Cl)c(Cl)c(Cl)c2)cc1 [Compound 155] | 5.8
CCCC(c1cccc(Oc2ccc(C(C)(C)C)cc2)c1)N(O)C(=S)NCc1ccc(Cl)c(Cl)c1 (stereo not drawn) [Compound 31] | 10
CSc1ccc(NC(=O)Nc2ccc(Cl)c(Cl)c2)cc1 [Compound 154] | 8.6
O=C(Nc1ccc(Cl)c(Cl)c1)Nc1nc2ccccc2[nH]1 [Compound 140] | 17.4
CC(C)(C)c1ccc(C(=O)Nc2cccc(CN(O)C(=S)NCc3ccccc3)c2)cc1 [Compound 84] | 15
COc1cccc(CNC(=S)Nc2ccc(Oc3ccc(C(C)(C)C)cc3)cc2)c1 [Compound 110] | 21.2
CC(C)(C)c1cccc(Oc2ccc(NC(=S)NCc3cccc(C(F)(F)F)c3)cc2)c1 [Compound 178] | 8.6
FC(F)(F)c1cccc(NC(=S)Nc2ccc(Cl)c(Cl)c2)c1 [Compound 147] | 4.7
CC(c1cccc(Oc2ccc(C(C)(C)C)cc2)c1)N(O)C(=S)NCc1ccccc1 (stereo not drawn) [Compound 1] | 11.2
O=C(Nc1ccc(Cl)c(Cl)c1)Nc1nnc(C(F)(F)F)s1 [Compound 236, 1-(5-trifluoromethyl-1,3,4-thiadiazol-2-yl)-3-(3,4-dichlorophenyl)urea] | 4.2
CC(C)(C)c1ccc(Oc2ccccc2N(O)C(=S)Nc2ccc(Cl)c(C(F)(F)F)c2)cc1 [Compound 171] | 10.8
CC(C)(C)c1ccc(Oc2ccc(NC(=S)NCc3ccccc3Cl)cc2)cc1 [Compound 104] | 13.4
FC(F)(F)c1cc(NC(=S)Nc2ccc(Sc3ccccn3)cc2)ccc1Cl [Compound 223] | 8.3
CCCCCCNC(=S)NCc1cccc(Oc2ccc(C(C)(C)C)cc2)c1 [Compound 42] | 17.2
